Measurements published in PubChem BioAssay AID330 (DTP/NCI, 2004).
Inconclusive results and toxic doses are left out. Rule for the calls: active = survival T/C of 150% or more; inactive = T/C below 125% in these data.

System: P388 leukemia ip, CD2F1 mice, survival T/C
Assay: NCI In Vivo Anticancer Drug Screen. Data for tumor model P388 Leukemia (intraperitoneal) in CD2F1 (CDF1) mice
Conditions: endpoint: median survival time, higher = longer survival
Outline: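 Mice carrying the transplanted tumor received test compound or vehicle. Survival was recorded in each group, and the value is the treated-group measurement divided by that of the vehicle-treated control group.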

[1] = dose: 100.0 mg/kg/injection, schedule: Q04DX003 (ip), vehicle: saline with Tween-80
[2] = dose: 200.0 mg/kg/injection, schedule: Q04DX003 (ip), vehicle: saline with Tween-80
[3] = dose: 400.0 mg/kg/injection, schedule: Q04DX003 (ip), vehicle: saline with Tween-80
[4] = dose: 50.0 mg/kg/injection, schedule: Q01DX009 (ip), vehicle: Klucel (hydroxypropylcellulose) (HPC)
[5] = dose: 100.0 mg/kg/injection, schedule: Q01DX009 (ip), vehicle: Klucel (hydroxypropylcellulose) (HPC)
[6] = dose: 50.0 mg/kg/injection, schedule: Q01DX009 (ip), vehicle: saline
[7] = dose: 100.0 mg/kg/injection, schedule: Q01DX009 (ip), vehicle: saline
[8] = dose: 200.0 mg/kg/injection, schedule: Q01DX009 (ip), vehicle: saline
[9] = dose: 50.0 mg/kg/injection, schedule: Q01DX005 (ip), vehicle: Klucel (hydroxypropylcellulose) (HPC)
[10] = dose: 100.0 mg/kg/injection, schedule: Q01DX005 (ip), vehicle: Klucel (hydroxypropylcellulose) (HPC)
[11] = dose: 50.0 mg/kg/injection, schedule: Q01DX009 (ip), vehicle: saline with Tween-80
[12] = dose: 100.0 mg/kg/injection, schedule: Q01DX009 (ip), vehicle: saline with Tween-80
[13] = dose: 200.0 mg/kg/injection, schedule: Q01DX009 (ip), vehicle: saline with Tween-80
[14] = dose: 100.0 mg/kg/injection, schedule: Q01DX001 (ip), vehicle: Klucel (hydroxypropylcellulose) (HPC)
[15] = dose: 60.0 mg/kg/injection, schedule: Q01DX005 (ip), vehicle: saline with Tween-80
[16] = dose: 120.0 mg/kg/injection, schedule: Q01DX005 (ip), vehicle: saline with Tween-80
[17] = dose: 240.0 mg/kg/injection, schedule: Q01DX005 (ip), vehicle: saline with Tween-80
[18] = dose: 12.5 mg/kg/injection, schedule: Q01DX009 (ip), vehicle: other

Measured: T/C

CC1C=CC(C)N(c2nnnn2C)N1c1nnnn1C (stereo unspecified)
inactive: [1] 116 % of control | [2] 106 % of control | [3] 100 % of control

O=C1C(=C2C=CN(CCCN3CCCCC3)C=C2)C(=O)c2ccccc21
inactive: [4] 91 % of control | [5] 102 % of control | dose: 200.0 mg/kg/injection, schedule: Q01DX009 (ip), vehicle: Klucel (hydroxypropylcellulose) (HPC) 102 % of control

O=C1CNC(=O)CN1
inactive: [6] 96 % of control | [7] 90 % of control | dose: 100.0 mg/kg/injection, schedule: Q04DX003 (ip), vehicle: saline 100 % of control | [8] 97 % of control | dose: 200.0 mg/kg/injection, schedule: Q04DX003 (ip), vehicle: saline 91 % of control | dose: 400.0 mg/kg/injection, schedule: Q04DX003 (ip), vehicle: saline 100 % of control

O=C(CNC(=O)Nc1ccc(Cl)c(Cl)c1)N/N=C/C=C/c1ccccc1
inactive: dose: 15.0 mg/kg/injection, schedule: Q01DX005 (ip), vehicle: saline with Tween-80 96 % of control | dose: 30.0 mg/kg/injection, schedule: Q01DX005 (ip), vehicle: saline with Tween-80 87 % of control

COc1ccc(NP2(=O)N(Cc3ccc(Cl)cc3)CCCN2Cc2ccc(Cl)cc2)cc1
inactive: [9] 100 % of control | [10] 88 % of control

CCN(CC)C(=O)OC1c2ccccc2C2CC1c1ccccc1C2O (stereo unspecified)
inactive: dose: 100.0 mg/kg/injection, schedule: Q04DX003 (ip), vehicle: Klucel (hydroxypropylcellulose) (HPC) 97 % of control | dose: 200.0 mg/kg/injection, schedule: Q04DX003 (ip), vehicle: Klucel (hydroxypropylcellulose) (HPC) 102 % of control | dose: 400.0 mg/kg/injection, schedule: Q04DX003 (ip), vehicle: Klucel (hydroxypropylcellulose) (HPC) 89 % of control

CC1(C)OCC(C2NC2C2COC(C)(C)O2)O1 (stereo unspecified)
inactive: [6] 108 % of control | [7] 110 % of control | [8] 104 % of control

CCOC(=O)c1ccc(NC(Cc2ccccc2)=NC(C)(C)C)cc1
inactive: [11] 98 % of control | [12] 94 % of control | [13] 88 % of control

C/C=C/N1C(=O)C2C=CC1C(C(=O)OC)=C2C(=O)OC (stereo unspecified)
inactive: dose: 100.0 mg/kg/injection, schedule: Q01DX001 (ip), vehicle: saline 100 % of control | dose: 200.0 mg/kg/injection, schedule: Q01DX001 (ip), vehicle: saline 99 % of control | dose: 400.0 mg/kg/injection, schedule: Q01DX001 (ip), vehicle: saline 94 % of control

CCC[As](C)SCC1OC(OC(C)=O)C(OC(C)=O)C(OC(C)=O)C1OC(C)=O (stereo unspecified)
inactive: [11] 110 % of control | [12] 102 % of control | [13] 118 % of control

Cn1c(=O)c2cc(C(N)=O)c(=O)oc2n(C)c1=O
inactive: dose: 62.5 mg/kg/injection, schedule: Q01DX001 (ip), vehicle: Klucel (hydroxypropylcellulose) (HPC) 109 % of control | dose: 125.0 mg/kg/injection, schedule: Q01DX001 (ip), vehicle: Klucel (hydroxypropylcellulose) (HPC) 110 % of control | dose: 250.0 mg/kg/injection, schedule: Q01DX001 (ip), vehicle: Klucel (hydroxypropylcellulose) (HPC) 114 % of control

CCOC(=O)Nc1cc(Cl)ccc1O
inactive: [1] 90 % of control | [2] 90 % of control | [3] 90 % of control

C[CH2][Sn][CH2]C.O=C(CC(=O)c1ccccc1)c1ccccc1.O=C(CC(=O)c1ccccc1)c1ccccc1
inactive: dose: 12.5 mg/kg/injection, schedule: Q01DX001 (ip), vehicle: Klucel (hydroxypropylcellulose) (HPC) 115 % of control | dose: 25.0 mg/kg/injection, schedule: Q01DX001 (ip), vehicle: Klucel (hydroxypropylcellulose) (HPC) 111 % of control | dose: 50.0 mg/kg/injection, schedule: Q01DX001 (ip), vehicle: Klucel (hydroxypropylcellulose) (HPC) 115 % of control | [14] 110 % of control | dose: 400.0 mg/kg/injection, schedule: Q01DX001 (ip), vehicle: Klucel (hydroxypropylcellulose) (HPC) 115 % of control

CCOC(=O)C1=C(Nc2ccc(Cl)cc2)C(=O)N(C(C)(C)C)C1
inactive: [15] 111 % of control | [16] 108 % of control | [17] 109 % of control

CC(=O)Nc1ccc(S(=O)(=O)N/N=C/C(=O)O)cc1
inactive: dose: 3.13 mg/kg/injection, schedule: Q01DX009 (ip), vehicle: other 101 % of control | dose: 6.25 mg/kg/injection, schedule: Q01DX009 (ip), vehicle: other 111 % of control | [18] 118 % of control

CCCCCCCCCCCC(=O)NN
inactive: [11] 95 % of control | [1] 100 % of control | [2] 100 % of control

O=C(O)c1c[nH]c2cc(OCc3ccccc3)ccc2c1=O
inactive: [6] 99 % of control | [7] 98 % of control | [8] 103 % of control

Nc1ccc(NCC2CCCN3CCCCC23)c2c(=O)c3ccccc3sc12 (stereo unspecified)
inactive: dose: 13.25 mg/kg/injection, schedule: Q01DX005 (ip), vehicle: saline with Tween-80 104 % of control | dose: 26.5 mg/kg/injection, schedule: Q01DX005 (ip), vehicle: saline with Tween-80 101 % of control | dose: 53.0 mg/kg/injection, schedule: Q01DX005 (ip), vehicle: saline with Tween-80 103 % of control | dose: 90.0 mg/kg/injection, schedule: Q01DX005 (ip), vehicle: saline with Tween-80 94 % of control | dose: 106.0 mg/kg/injection, schedule: Q01DX005 (ip), vehicle: saline with Tween-80 100 % of control | dose: 180.0 mg/kg/injection, schedule: Q01DX005 (ip), vehicle: saline with Tween-80 94 % of control | dose: 360.0 mg/kg/injection, schedule: Q01DX005 (ip), vehicle: saline with Tween-80 95 % of control

COC(=O)C1C2C(C)CC3(CC12C)OCCO3 (stereo unspecified)
inactive: [12] 91 % of control | [13] 91 % of control | dose: 400.0 mg/kg/injection, schedule: Q01DX009 (ip), vehicle: saline with Tween-80 91 % of control

C/C(=N\N1CN(C(C)C(=O)O)P(N(CCO)CCO)N=C1N)c1cccs1 (stereo unspecified)
inactive: dose: 7.5 mg/kg/injection, schedule: Q01DX005 (ip), vehicle: saline 98 % of control | dose: 15.0 mg/kg/injection, schedule: Q01DX005 (ip), vehicle: saline 101 % of control | dose: 30.0 mg/kg/injection, schedule: Q01DX005 (ip), vehicle: saline 98 % of control

CN(C)CCC(=O)c1ccc(C(=O)CCN(C)C)cc1
inactive: dose: 25.0 mg/kg/injection, schedule: Q01DX005 (ip), vehicle: saline 108 % of control | dose: 50.0 mg/kg/injection, schedule: Q01DX005 (ip), vehicle: saline 107 % of control | dose: 100.0 mg/kg/injection, schedule: Q01DX005 (ip), vehicle: saline 107 % of control

Brc1ccc(C(Nc2nncs2)Nc2nncs2)cc1
inactive: [15] 111 % of control | [16] 115 % of control | [17] 107 % of control

Cc1cc(Cl)c2c(c1N)C(=O)c1ccccc1C2=O
inactive: [9] 97 % of control | [10] 96 % of control | dose: 200.0 mg/kg/injection, schedule: Q01DX005 (ip), vehicle: Klucel (hydroxypropylcellulose) (HPC) 98 % of control

O=C(OCc1ccccc1)n1nnc2ccccc21
inactive: [15] 113 % of control | [16] 105 % of control | [17] 111 % of control

CNC(=S)N/N=C1/CCOC(C)/C1=N\NC(=S)NC (stereo unspecified)
inactive: dose: 50.0 mg/kg/injection, schedule: Q01DX005 (ip), vehicle: saline with Tween-80 93 % of control | dose: 100.0 mg/kg/injection, schedule: Q01DX005 (ip), vehicle: saline with Tween-80 95 % of control | dose: 200.0 mg/kg/injection, schedule: Q01DX005 (ip), vehicle: saline with Tween-80 92 % of control

CC(C)(C)OC(=O)NN(CC(=O)OCc1ccccc1)N=O
inactive: [18] 104 % of control | dose: 25.0 mg/kg/injection, schedule: Q01DX009 (ip), vehicle: other 97 % of control | dose: 50.0 mg/kg/injection, schedule: Q01DX009 (ip), vehicle: other 97 % of control | dose: 100.0 mg/kg/injection, schedule: Q01DX009 (ip), vehicle: other 101 % of control | dose: 200.0 mg/kg/injection, schedule: Q01DX009 (ip), vehicle: other 97 % of control

COc1ccc(C(=O)CSC(=S)N2CCCCC2)cc1
inactive: [4] 86 % of control | [5] 86 % of control

Br[CH](Br)[Hg][c]1ccccc1
inactive: [14] 93 % of control | dose: 200.0 mg/kg/injection, schedule: Q01DX001 (ip), vehicle: Klucel (hydroxypropylcellulose) (HPC) 96 % of control
